Key:
[1] = system: K562; assay: Growth inhibition of human K562 cells assessed as cell growth at 0.01 uM incubated for 48 hrs by sulforhodamine B assay relative to control; type: functional; conditions: K562, 48 h, read-out: Activity
[2] = system: MDA-MB-468; assay: Growth inhibition of human MDA-MB-468 cells incubated for 48 hrs by sulforhodamine B assay; type: functional, cell-based; conditions: MDA-MB-468, 48 h
[3] = system: SF-539; assay: Growth inhibition of human SF539 cells incubated for 48 hrs by sulforhodamine B assay; type: functional, cell-based; conditions: SF-539, 48 h
[4] = system: SF-268; assay: Growth inhibition of human SF268 cells assessed as cell growth at 1 uM incubated for 48 hrs by sulforhodamine B assay relative to control; type: functional; conditions: SF-268, 48 h, read-out: Activity
[5] = system: Hs-578T; assay: Growth inhibition of human Hs578T cells assessed as cell growth at 100 uM incubated for 48 hrs by sulforhodamine B assay relative to control; type: functional; conditions: read-out: Activity
[6] = system: A549; assay: Growth inhibition of human A549/ATCC cells incubated for 48 hrs by sulforhodamine B assay; type: functional, cell-based; conditions: A549, 48 h
[7] = system: LOX IMVI; assay: Growth inhibition of human LOXIMVI cells assessed as cell growth at 1 uM incubated for 48 hrs by sulforhodamine B assay relative to control; type: functional; conditions: read-out: Activity
[8] = system: UACC-62; assay: Growth inhibition of human UACC62 cells assessed as cell growth at 0.1 uM incubated for 48 hrs by sulforhodamine B assay relative to control; type: functional; conditions: UACC-62, 48 h, read-out: Activity
[9] = system: SK-MEL-28; assay: Growth inhibition of human SK-MEL-28 cells incubated for 48 hrs by sulforhodamine B assay; type: functional, cell-based; conditions: SK-MEL-28, 48 h
[10] = system: RPMI-8226; assay: Growth inhibition of human RPMI8226 cells incubated for 48 hrs by sulforhodamine B assay; type: functional, cell-based; conditions: RPMI-8226, 48 h
[11] = system: SW-620; assay: Growth inhibition of human SW620 cells assessed as cell growth at 1 uM incubated for 48 hrs by sulforhodamine B assay relative to control; type: functional; conditions: SW-620, 48 h, read-out: Activity
[12] = system: ACHN; assay: Growth inhibition of human ACHN cells assessed as cell growth at 100 uM incubated for 48 hrs by sulforhodamine B assay relative to control; type: functional; conditions: read-out: Activity
[13] = system: RPMI-8226; assay: Growth inhibition of human RPMI8226 cells assessed as cell growth at 0.01 uM incubated for 48 hrs by sulforhodamine B assay relative to control; type: functional; conditions: RPMI-8226, 48 h, read-out: Activity
[14] = system: K562; assay: Growth inhibition of human K562 cells assessed as cell growth at 1 uM incubated for 48 hrs by sulforhodamine B assay relative to control; type: functional; conditions: K562, 48 h, read-out: Activity
[15] = system: OVCAR-5; assay: Growth inhibition of human OVCAR5 cells assessed as cell growth at 0.01 uM incubated for 48 hrs by sulforhodamine B assay relative to control; type: functional; conditions: OVCAR-5, 48 h, read-out: Activity
[16] = system: MDA-MB-231; assay: Growth inhibition of human MDA-MB-231 cells incubated for 48 hrs by sulforhodamine B assay; type: functional, cell-based; conditions: MDA-MB-231, 48 h
[17] = system: A498; assay: Growth inhibition of human A498 cells assessed as cell growth at 0.01 uM incubated for 48 hrs by sulforhodamine B assay relative to control; type: functional; conditions: A498, 48 h, read-out: Activity
[18] = system: SNB-19; assay: Growth inhibition of human SNB19 cells assessed as cell growth at 100 uM incubated for 48 hrs by sulforhodamine B assay relative to control; type: functional; conditions: SNB-19, 48 h, read-out: Activity
[19] = system: MDA-MB-435; assay: Growth inhibition of human MDA-MB-435 cells incubated for 48 hrs by sulforhodamine B assay; type: functional, cell-based; conditions: MDA-MB-435, 48 h
[20] = system: RPMI-8226; assay: Growth inhibition of human RPMI8226 cells assessed as cell growth at 0.1 uM incubated for 48 hrs by sulforhodamine B assay relative to control; type: functional; conditions: RPMI-8226, 48 h, read-out: Activity
[21] = system: BT-549; assay: Growth inhibition of human BT549 cells assessed as cell growth at 0.1 uM incubated for 48 hrs by sulforhodamine B assay relative to control; type: functional; conditions: BT-549, 48 h, read-out: Activity
[22] = system: UO-31; assay: Growth inhibition of human UO31 cells assessed as cell growth at 0.01 uM incubated for 48 hrs by sulforhodamine B assay relative to control; type: functional; conditions: UO-31, 48 h, read-out: Activity
[23] = system: SF-539; assay: Growth inhibition of human SF539 cells assessed as cell growth at 0.1 uM incubated for 48 hrs by sulforhodamine B assay relative to control; type: functional; conditions: SF-539, 48 h, read-out: Activity
[24] = system: T47D; assay: Growth inhibition of human T47D cells assessed as cell growth at 0.1 uM incubated for 48 hrs by sulforhodamine B assay relative to control; type: functional; conditions: read-out: Activity
[25] = system: SF-268; assay: Growth inhibition of human SF268 cells assessed as cell growth at 100 uM incubated for 48 hrs by sulforhodamine B assay relative to control; type: functional; conditions: SF-268, 48 h, read-out: Activity
[26] = system: LOX IMVI; assay: Growth inhibition of human LOXIMVI cells assessed as cell growth at 0.1 uM incubated for 48 hrs by sulforhodamine B assay relative to control; type: functional; conditions: read-out: Activity
[27] = system: SF-295; assay: Growth inhibition of human SF295 cells incubated for 48 hrs by sulforhodamine B assay; type: functional, cell-based; conditions: SF-295, 48 h
[28] = read-out: LC50 (the source's name)
[29] = read-out: pLC50 (the source's name) (converted)

## O=C(Nc1cccc(-n2cc(-c3ccncc3)c(-c3cc(O)cc(Cl)c3)n2)c1)c1ccc(N2CCOCC2)c(C(F)(F)F)c1
[1]
  growth at 0.01 µM: 113%
[2]
  IC50: 3.42 µM
[2]; read-out: GI50
  GI50: 3.42 µM
[2]; [28]
  CC50: > 100 µM
[2]; read-out: TGI
  TGI: 43.3 µM
[2]; read-out: pGI50 (converted)
  GI50: 3.39 µM
[2]; [29]
  CC50: > 100 µM
[2]; read-out: pTGI (converted)
  TGI: 43.7 µM
[3]; read-out: GI50
  GI50: 1.44 µM
[3]; [28]
  CC50: > 100 µM
[3]; read-out: TGI
  TGI: 44.7 µM
[3]; read-out: pGI50 (converted)
  GI50: 1.45 µM
[3]; [29]
  CC50: > 100 µM
[3]; read-out: pTGI (converted)
  TGI: 4.47 µM
[4]
  growth at 1 µM: 89%
[5]
  growth at 100 µM: 30%
[6]
  IC50: 1.64 µM
[6]; read-out: GI50
  GI50: 1.54 µM
[6]; [28]
  CC50: > 100 µM
[6]; read-out: TGI
  TGI: 18 µM
[6]; read-out: pGI50 (converted)
  GI50: 1.66 µM
[6]; [29]
  CC50: > 100 µM
[6]; read-out: pTGI (converted)
  TGI: 18.2 µM
[7]
  growth at 1 µM: 51%
[8]
  growth at 0.1 µM: 91%
[9]; read-out: GI50
  GI50: 0.759 µM
[9]; [28]
  CC50: > 100 µM
[9]; read-out: TGI
  TGI: 32.7 µM
[9]; read-out: pGI50 (converted)
  GI50: 0.759 µM
[9]; [29]
  CC50: > 100 µM
[9]; read-out: pTGI (converted)
  TGI: 3.24 µM
[10]
  IC50: 0.4 µM
[10]; read-out: GI50
  GI50: 0.396 µM
[10]; [28]
  CC50: > 100 µM
[10]; read-out: TGI
  TGI: 23.1 µM
[10]; read-out: pGI50 (converted)
  GI50: 0.398 µM
[10]; [29]
  CC50: > 100 µM
[10]; read-out: pTGI (converted)
  TGI: 2.29 µM
[11]
  growth at 1 µM: 107%
[12]
  growth at 100 µM: -20%
[13]
  growth at 0.01 µM: 104%
[14]
  growth at 1 µM: 30%
[15]
  growth at 0.01 µM: 52%
[16]; read-out: GI50
  GI50: 0.327 µM
[16]; [28]
  CC50: 27 µM
[16]; read-out: TGI
  TGI: 16.6 µM
[16]; read-out: pGI50 (converted)
  GI50: 0.324 µM
[16]; [29]
  CC50: 26.9 µM
[16]; read-out: pTGI (converted)
  TGI: 1.66 µM
[17]
  growth at 0.01 µM: 97%
[18]
  growth at 100 µM: -12%
[19]; read-out: GI50
  GI50: 2 µM
[19]; read-out: LC50
  LC50: > 100 µM
[19]; read-out: TGI
  TGI: > 100 µM
[19]; read-out: pGI50 (converted)
  GI50: 2.04 µM
[19]; read-out: pLC50 (converted)
  LC50: > 100 µM
[19]; read-out: pTGI (converted)
  TGI: > 100 µM
[20]
  growth at 0.1 µM: 100%
[21]
  growth at 0.1 µM: 97%
[22]
  growth at 0.01 µM: 85%
[23]
  growth at 0.1 µM: 93%
[24]
  growth at 0.1 µM: 98%
[25]
  growth at 100 µM: 38%
[26]
  growth at 0.1 µM: 102%
[27]; read-out: GI50
  GI50: 0.514 µM
[27]; [28]
  CC50: 25.1 µM
[27]; read-out: TGI
  TGI: 27.8 µM
[27]; read-out: pGI50 (converted)
  GI50: 0.617 µM
[27]; [29]
  CC50: 28.2 µM
[27]; read-out: pTGI (converted)
  TGI: 2.75 µM

## COc1cc(Cl)cc(-c2nn(-c3cccc(NC(=O)Nc4ccc(Cl)c(Cl)c4)c3)cc2-c2ccncc2)c1
[1]
  growth at 0.01 µM: 101%
[2]
  IC50: 1.74 µM
[2]; read-out: GI50
  GI50: 1.74 µM
[2]; [28]
  CC50: > 100 µM
[2]; read-out: TGI
  TGI: 73.7 µM
[2]; read-out: pGI50 (converted)
  GI50: 1.74 µM
[2]; [29]
  CC50: > 100 µM
[2]; read-out: pTGI (converted)
  TGI: 7.41 µM
[3]; read-out: GI50
  GI50: 2.5 µM
[3]; [28]
  CC50: > 100 µM
[3]; read-out: TGI
  TGI: 13.2 µM
[3]; read-out: pGI50 (converted)
  GI50: 2.57 µM
[3]; [29]
  CC50: > 100 µM
[3]; read-out: pTGI (converted)
  TGI: 13.2 µM
[4]
  growth at 1 µM: 88%
[5]
  growth at 100 µM: 28%
[6]
  IC50: 1.48 µM
[6]; read-out: GI50
  GI50: 1.48 µM
[6]; [28]
  CC50: > 100 µM
[6]; read-out: TGI
  TGI: 15.3 µM
[6]; read-out: pGI50 (converted)
  GI50: 1.48 µM
[6]; [29]
  CC50: > 100 µM
[6]; read-out: pTGI (converted)
  TGI: 15.5 µM
[7]
  growth at 1 µM: 91%
[8]
  growth at 0.1 µM: 97%
[9]; read-out: GI50
  GI50: 2.96 µM
[9]; [28]
  CC50: > 100 µM
[9]; read-out: TGI
  TGI: 35.6 µM
[9]; read-out: pGI50 (converted)
  GI50: 2.95 µM
[9]; [29]
  CC50: > 100 µM
[9]; read-out: pTGI (converted)
  TGI: 37.2 µM
[10]
  IC50: 0.65 µM
[10]; read-out: GI50
  GI50: 0.652 µM
[10]; [28]
  CC50: > 100 µM
[10]; read-out: TGI
  TGI: 33.7 µM
[10]; [29]
  CC50: > 100 µM
[11]
  growth at 1 µM: 93%
[12]
  growth at 100 µM: 6%
[13]
  growth at 0.01 µM: 99%
[14]
  growth at 1 µM: 67%
[15]
  growth at 0.01 µM: 93%
[16]; read-out: GI50
  GI50: 1.87 µM
[16]; [28]
  CC50: 1.5 µM
[16]; read-out: TGI
  TGI: 45.2 µM
[16]; read-out: pGI50 (converted)
  GI50: 1.86 µM
[16]; [29]
  CC50: 15.8 µM
[16]; read-out: pTGI (converted)
  TGI: 4.47 µM
[17]
  growth at 0.01 µM: 96%
[18]
  growth at 100 µM: 10%
[19]; read-out: GI50
  GI50: 2.06 µM
[19]; read-out: LC50
  LC50: > 100 µM
[19]; read-out: TGI
  TGI: 60 µM
[19]; read-out: pGI50 (converted)
  GI50: 2.09 µM
[19]; read-out: pLC50 (converted)
  LC50: > 100 µM
[19]; read-out: pTGI (converted)
  TGI: 6.03 µM
[20]
  growth at 0.1 µM: 100%
[21]
  growth at 0.1 µM: 98%
[22]
  growth at 0.01 µM: 89%
[23]
  growth at 0.1 µM: 92%
[24]
  growth at 0.1 µM: 94%
[25]
  growth at 100 µM: 11%
[26]
  growth at 0.1 µM: 94%
[27]; read-out: GI50
  GI50: 1.37 µM
[27]; [28]
  CC50: > 100 µM
[27]; read-out: TGI
  TGI: 72.1 µM
[27]; read-out: pGI50 (converted)
  GI50: 1.78 µM
[27]; [29]
  CC50: > 100 µM
[27]; read-out: pTGI (converted)
  TGI: 7.24 µM

From ChEMBL document CHEMBL4308841, “Synthesis, in vitro antiproliferative activity, and kinase inhibitory effects of pyrazole-containing diarylureas and diarylamides” (Eur J Med Chem, 2018)
